The record followed here is patent publication US20210154188A1, “ALK5 INHIBITORS, CONJUGATES, AND USES THEREOF” (SILVERBACK THERAPEUTICS, INC., priority 2018, published 2021).

Structures are written as SMILES.

The target in experiment [1] is T1, ALK5 (Homo sapiens, UniProt P36897).
T1 construct: purchased Reaction Biology Corp (Malvern, PA)
T1 sequence (P36897 34-503): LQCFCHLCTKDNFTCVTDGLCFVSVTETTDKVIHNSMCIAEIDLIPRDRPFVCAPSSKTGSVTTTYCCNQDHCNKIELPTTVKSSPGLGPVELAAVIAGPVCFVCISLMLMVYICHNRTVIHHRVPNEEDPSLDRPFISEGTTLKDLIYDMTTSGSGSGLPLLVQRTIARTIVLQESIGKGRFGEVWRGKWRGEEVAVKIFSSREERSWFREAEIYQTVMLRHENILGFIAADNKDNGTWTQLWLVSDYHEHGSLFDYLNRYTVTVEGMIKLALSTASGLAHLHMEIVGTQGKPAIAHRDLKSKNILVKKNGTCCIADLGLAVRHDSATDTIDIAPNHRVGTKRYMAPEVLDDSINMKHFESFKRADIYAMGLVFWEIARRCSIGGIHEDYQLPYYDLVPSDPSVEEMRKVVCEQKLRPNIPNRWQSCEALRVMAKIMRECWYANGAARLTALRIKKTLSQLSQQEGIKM
The experiment can be described thus: ALK5 enzyme inhibition assay (33P-ATP filter-binding, Reaction Biology Corp). In kind it is biochemical. The following applies: casein substrate 1 mg/mL, 10 uM ATP. The method, then:
ALK5 enzyme inhibition assays were performed by Reaction Biology Corp (Malvern, PA). 1 mg/mL of peptide subtrate (casein) and 10 uM ATP were prepared in a mixture of fresh reaction buffer. The kinase was delivered into the substrate solution which was gently mixed. Compounds in 100% DMSO were added to the kinase reaction mixture by Acoustic technology (Echo550; nanoliter range) and the mixture was incubated for 20 min at room temperature. ^33P-ATP (Specific activity 10 uCi/uL) was added into the reaction mixture to initiate the reaction and the reaction mixture was incubated for 2 hours at room temperature. Radioactivity was detected by filter-binding method and kinase activity data were expressed as the percent remaining kinase activity in test samples compared to vehicle (dimethyl sulfoxide) reactions. IC50 values and curve fits were obtained using Prism (GraphPad Software).

The subject of experiment [2] is TGFb/SMAD Signaling Pathway SBE reporter cell line. Kind of experiment: TGFb reporter assay (luciferase). As to conditions: 5-6 h preincubation, then TGFb, 18 h, luminescence. In kind it is cell-based. The protocol: TGFb/SMAD Signaling Pathway SBE reporter cell line was obtained from BPS Bioscience. Cells were passed/expanded/stored in liquid nitrogen per supplier's instruction with the exception that growth media was changed to DMEM-C with Geneticin (DMEM supplemented with 10% fetal bovine serum, 1× NEAA, 1 mM Pyruvate, 2 mM glutamine, 50 μg/mL penicillin, 50 U/mL streptomycin and 400 ug/mL of Geneticin). The assay media was MEM supplemented with 0.5% fetal bovine serum, 1× NEAA, 1 mM Pyruvate, 50 μg/mL penicillin and 50 U/mL streptomycin.
Reporter cells were harvested from the tissue culture flasks by incubation in small quantity of Versene at room temperature for three to five minutes after the media in the flask was removed and cells rinsed with PBS. Cells were counted and diluted in the assay media at ˜0.8×10^6 cells/mL then 50 uL/well were added to 96-well assay plate. Test samples (at desired concentrations diluted in assay media) were added to assay plate containing the 50 uL/well of cells (or media only), 50 uL per well, and incubated for 5-6 hours at 37° C. in a 5% CO2 humidified incubator. After that time, 15 uL of TGFb diluted to 12.5 ng/mL in the assay media was added to the plate. Controls included TGFb titration (from 25 to 0 ng/mL) without inhibitors, and media only (without cells, inhibitor or TGFb). Plates were incubated at 37° C. in a 5% CO2 humidified incubator for 18 h. Luciferase substrate solution was subsequently added at 75 uL per well, incubated in dark with shaking at room temperature for 10 min, and luminescence was measured using a luminometer.

What is called IC50 is the midpoint of a concentration-inhibition curve. Read a high IC50 as lower potency. In the case of `Cc1cccc(-c2nc(CNC3CCc4ccccc43)[nH]c2-c2ccc3ncnn3c2)n1` (racemic) [Compound 1.26, rac-N-((5-([1,2,4]triazolo[1,5-a]pyridin-6-yl)-4-(6-methylpyridin-2-yl)-1H-imidazol-2-yl)methyl)-2,3-dihydro-1H-inden-1-amine], the half-maximal inhibitory concentration (IC50) in experiment [1] is 0.1 to 1 µM; in experiment [2], 0.01 to 0.1 µM. Take `Cc1cccc(-c2nc(CNc3ccc4c(c3)CNCC4)[nH]c2-c2ccc3ncnn3c2)n1` [Compound 1.1, N-((5-([1,2,4]triazolo[1,5-a]pyridin-6-yl)-4-(6-methylpyridin-2-yl)-1H-imidazol-2-yl)methyl)-1,2,3,4-tetrahydroisoquinolin-7-amine]: the IC50 in experiment [1] and in experiment [2] was 0.1 to 1 µM each time.

On to `Cc1cccc(-c2nc(CNc3ccc4c(c3)CCNC4)[nH]c2-c2ccc3ncnn3c2)n1` [Compound 1.2, N-((5-([1,2,4]triazolo[1,5-a]pyridin-6-yl)-4-(6-methylpyridin-2-yl)-1H-imidazol-2-yl)methyl)-1,2,3,4-tetrahydroisoquinolin-6-amine], for which the half-inhibitory concentration (IC50) in experiment [1] and in experiment [2] was 0.1 to 1 µM each time. With `Cc1cccc(-c2nc(CNc3cccc4c3CNCC4)[nH]c2-c2ccc3ncnn3c2)n1` [Compound 1.3, N-((5-([1,2,4]triazolo[1,5-a]pyridin-6-yl)-4-(6-methylpyridin-2-yl)-1H-imidazol-2-yl)methyl)-1,2,3,4-tetrahydroisoquinolin-8-amine], the half-inhibitory concentration (IC50) in experiment [1] and in experiment [2] was 0.1 to 1 µM throughout.

For `Cc1cccc(-c2nc(CNc3cccc4c3CCNC4)[nH]c2-c2ccc3ncnn3c2)n1` [Compound 1.4, N-((5-([1,2,4]triazolo[1,5-a]pyridin-6-yl)-4-(6-methylpyridin-2-yl)-1H-imidazol-2-yl)methyl)-1,2,3,4-tetrahydroisoquinolin-5-amine], the half-maximal inhibitory concentration (IC50) in experiment [1] and in experiment [2] was 0.1 to 1 µM each time. In turn, `Cc1cccc(-c2nc(CNc3ccc4c(c3)CCC4N)[nH]c2-c2ccc3ncnn3c2)n1` (centres unmarked) [Compound 1.5, N^5-((5-([1,2,4]triazolo[1,5-a]pyridin-6-yl)-4-(6-methylpyridin-2-yl)-1H-imidazol-2-yl)methyl)-2,3-dihydro-1H-indene-1,5-diamine] came in with an IC50 in experiment [2] of 0.1 to 1 µM. For `Cc1cccc(-c2nc(CNc3cccc4c3CCC4N)[nH]c2-c2ccc3ncnn3c2)n1` (centres unmarked) [Compound 1.6, N^4-((5-([1,2,4]triazolo[1,5-a]pyridin-6-yl)-4-(6-methylpyridin-2-yl)-1H-imidazol-2-yl)methyl)-2,3-dihydro-1H-indene-1,4-diamine], in experiment [2], the 50% inhibitory concentration (IC50) was 0.1 to 1 µM.

Consider `Cc1cccc(-c2nc(CNC3CC3)[nH]c2-c2ccc3ncnn3c2)n1` [Compound 1.7, N-((5-([1,2,4]triazolo[1,5-a]pyridin-6-yl)-4-(6-methylpyridin-2-yl)-1H-imidazol-2-yl)methyl)-cyclopropanamine], for which the half-maximal inhibitory concentration (IC50) fell in the range of 1 to 10 µM in experiment [1] and 0.1 to 1 µM in experiment [2].

`Cc1cccc(-c2nc(CNC34CC(C3)C4)[nH]c2-c2ccc3ncnn3c2)n1` [Compound 1.9, N-((5-([1,2,4]triazolo[1,5-a]pyridin-6-yl)-4-(6-methylpyridin-2-yl)-1H-imidazol-2-yl)methyl)bicyclo-[1.1.1]pentan-1-amine]: the IC50 in experiment [2] was in the range of 0.01 to 0.1 µM. Consider `Cc1cccc(-c2nc(CNC3CCCOC3)[nH]c2-c2ccc3ncnn3c2)n1` (centres unmarked) [Compound 1.15, 1-(5-([1,2,4]triazolo[1,5-a]pyridin-6-yl)-4-(6-methylpyridin-2-yl)-1H-imidazol-2-yl)-N-(3-tetrahydropyranyl)methanamine], for which the IC50 in experiment [2] is 0.01 to 0.1 µM. Regarding `Cc1cccc(-c2nc(CNC3CCCCC3C)[nH]c2-c2ccc3ncnn3c2)n1` (centres unmarked) [Compound 1.16, 1-(5-([1,2,4]triazolo[1,5-a]pyridin-6-yl)-4-(6-methylpyridin-2-yl)-1H-imidazol-2-yl)-N-(2-methylcyclohexyl)methanamine], the half-inhibitory concentration (IC50) in experiment [2] was in the range of 0.01 to 0.1 µM. In experiment [2], `Cc1cccc(-c2nc(CNc3cccc4c3C(N)CC4)[nH]c2-c2ccc3ncnn3c2)n1` (centres unmarked) [Compound 1.20, N7-((5-([1,2,4]triazolo[1,5-a]pyridin-6-yl)-4-(6-methylpyridin-2-yl)-1H-imidazol-2-yl)methyl)-2,3-dihydro-1H-indene-1,7-diamine] yielded a concentration for half-maximal inhibition (IC50) of 0.1 to 1 µM.

`Cc1cccc(-c2nc(CNc3ccc4c(c3)C(N)CC4)[nH]c2-c2ccc3ncnn3c2)n1` (centres unmarked) [Compound 1.21, N6-((5-([1,2,4]triazolo[1,5-a]pyridin-6-yl)-4-(6-methylpyridin-2-yl)-1H-imidazol-2-yl)methyl)-2,3-dihydro-1H-indene-1,6-diamine] came in with a 50% inhibitory concentration (IC50) in experiment [2] of 0.1 to 1 µM. In experiment [2], `CC(=O)NC1Cc2cccc(NCc3nc(-c4cccc(C)n4)c(-c4ccc5ncnn5c4)[nH]3)c2C1` (centres unmarked) [Compound 1.23, N-(4-(((5-([1,2,4]triazolo[1,5-a]pyridin-6-yl)-4-(6-methylpyridin-2-yl)-1H-imidazol-2-yl)methyl)amino)-2,3-dihydro-1H-inden-2-yl)acetamide] returned a half-inhibitory concentration (IC50) of 0.1 to 1 µM. `Cc1cccc(-c2nc(CNC3CCCNC3)[nH]c2-c2ccn3ncnc3c2)n1` (centres unmarked) [Compound 1.38, N-((5-([1,2,4]triazolo[1,5-a]pyridin-7-yl)-4-(6-methylpyridin-2-yl)-1H-imidazol-2-yl)methyl)piperidin-3-amine] returned an IC50 in experiment [2] of 1 to 10 µM. Same read-out and setting: to `Cc1cccc(-c2nc(CNC3CCNCC3)[nH]c2-c2ccn3ncnc3c2)n1` [Compound 1.39, N-((5-([1,2,4]triazolo[1,5-a]pyridin-7-yl)-4-(6-methylpyridin-2-yl)-1H-imidazol-2-yl)methyl)piperidin-4-amine] belongs 1 to 10 µM. The same measure, in the same setting: to `Cc1cccc(-c2nc(C3CCCNC3)[nH]c2-c2ccc3ncnn3c2)n1` (centres unmarked) [Compound 1.48, 6-(4-(6-methylpyridin-2-yl)-2-(piperidin-3-yl)-1H-imidazol-5-yl)-[1,2,4]triazolo[1,5-a]pyridine] belongs 0.1 to 1 µM; to `Cc1cccc(-c2nc(C3CCCCN3)[nH]c2-c2ccc3ncnn3c2)n1` (centres unmarked) [Compound 1.49, 6-(4-(6-methylpyridin-2-yl)-2-(piperidin-2-yl)-1H-imidazol-5-yl)-[1,2,4]triazolo[1,5-a]pyridine], 0.1 to 1 µM; to `Cc1cccc(-c2nc(C3CCNC3)[nH]c2-c2ccc3ncnn3c2)n1` (centres unmarked) [Compound 1.50, 6-(4-(6-methylpyridin-2-yl)-2-(pyrrolidin-3-yl)-1H-imidazol-5-yl)-[1,2,4]triazolo[1,5-a]pyridine], 0.1 to 1 µM. For the molecule `Cc1cccc(-c2nc(C3CCN(C(=O)OC(C)(C)C)C3)[nH]c2-c2ccc3ncnn3c2)n1` (centres unmarked) [Compound 1.51, tert-butyl 3-(5-([1,2,4]triazolo[1,5-a]pyridin-6-yl)-4-(6-methylpyridin-2-yl)-1H-imidazol-2-yl)pyrrolidine-1-carboxylate], the half-inhibitory concentration (IC50) in experiment [2] fell in the range of 0.1 to 1 µM.

`Cc1cccc(-c2nc(C3CN(C(=O)OC(C)(C)C)C3)[nH]c2-c2ccc3ncnn3c2)n1` [Compound 1.52, tert-butyl 3-(5-([1,2,4]triazolo[1,5-a]pyridin-6-yl)-4-(6-methylpyridin-2-yl)-1H-imidazol-2-yl)azetidine-1-carboxylate] yielded an IC50 in experiment [2] of 0.1 to 1 µM.

Molecule `Cc1cccc(-c2nc(C3CNC3)[nH]c2-c2ccc3ncnn3c2)n1` [Compound 1.53, 6-(2-(azetidin-3-yl)-4-(6-methylpyridin-2-yl)-1H-imidazol-5-yl)-[1,2,4]triazolo[1,5-a]pyridine] yielded a half-inhibitory concentration (IC50) in experiment [2] of 1 to 10 µM. On to `Cc1cccc(-c2nc(C34CCC(N)(CC3)CC4)[nH]c2-c2ccc3ncnn3c2)n1` [Compound 1.55, 4-(5-([1,2,4]triazolo[1,5-a]pyridin-6-yl)-4-(6-methylpyridin-2-yl)-1H-imidazol-2-yl)bicyclo[2.2.2]octan-1-amine], for which, in experiment [2], the concentration for half-maximal inhibition (IC50) fell in the range of 1 to 10 µM.
